For 10 compounds, IC50 results are on record in ChEMBL document CHEMBL1127175, “4-hydroxyphenoxymethylene bisphosphonic acid derivatives: potent, non-hydrolysable inhibitors of MYO-inositol monophosphatase” (Bioorg Med Chem Lett, 1993).

By IC50 is commonly meant the concentration that inhibits the measured activity by half.

This test has as its target T1, Inositol monophosphatase 1 (Bos taurus, UniProt P20456).
T1 sequence (P20456 whole entry): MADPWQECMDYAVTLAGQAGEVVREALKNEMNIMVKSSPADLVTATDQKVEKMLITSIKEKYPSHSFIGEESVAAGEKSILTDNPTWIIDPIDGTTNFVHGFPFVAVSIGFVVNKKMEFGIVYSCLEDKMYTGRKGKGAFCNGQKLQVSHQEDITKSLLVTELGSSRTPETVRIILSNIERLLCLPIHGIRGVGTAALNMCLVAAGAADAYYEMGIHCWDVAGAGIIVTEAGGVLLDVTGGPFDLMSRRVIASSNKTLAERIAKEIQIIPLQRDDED
Put plainly: Tested for the inhibitory activity against recombinant bovine brain myo-inositol monophosphatase.
In the case of `CC(Oc1ccc(O)cc1O)(P(=O)(O)O)P(=O)(O)O`, the IC50 stood at 4.4 µM.

In the case of `O=P(O)(O)C(Cc1ccccc1)(Oc1ccc(O)cc1)P(=O)(O)O`, the IC50 turned out to be 0.5 µM.

As to `O=P(O)(O)C(Cc1ccccc1)(O[C@@H]1CC[C@@H](O)C[C@@H]1O)P(=O)(O)O`, the IC50 was 19.2 µM.

As to `O=P(O)(O)C(Oc1ccc(O)cc1O)P(=O)(O)O`, the IC50 was determined as 40.8 µM.

On to `O=P(O)(O)C(CCCCCCc1ccccc1)(O[C@@H]1CC[C@@H](O)C[C@@H]1O)P(=O)(O)O`, for which the IC50 came out at 2.5 µM.

On to `O=P(O)(O)C(O)(Cc1ccc(Cl)c(Cl)c1)P(=O)(O)O`, for which the IC50 worked out at 23 µM.

With `CC(O[C@@H]1CC[C@@H](O)C[C@@H]1O)(P(=O)(O)O)P(=O)(O)O`, the IC50 amounted to 4 µM.

Turning to `O=P(O)(O)C(Oc1ccc(O)cc1)P(=O)(O)O`, the IC50 is 27 µM.

`O=C(NCc1cccc(CC(Oc2ccc(O)cc2)(P(=O)(O)O)P(=O)(O)O)c1)c1ccc(Cl)c(Cl)c1`: the IC50 stood at 0.08 µM.

As for `CC(Oc1ccc(O)cc1)(P(=O)(O)O)P(=O)(O)O` [L-690330], the IC50 was 0.33 µM.
